Source: US11104703B2, “Binding compound and uses thereof” (priority 2016, dated 2021)
Numbered stars: 1 amine (or outer) side, 2 acyl side, 3 side chain; on linkers, the order of the positions; unused ones are H or OH. Square brackets hold non-standard residues; d marks the D form. Side chains are listed from the residue outwards. Peptide text beside a SMILES is read from it. * marks the point of attachment. Biotin = O=C1N[C@H]2[C@H](CS[C@H]2CCCCC(=O)*)N1; Gly(N-(CH2)3-guanidino) = N=C(N)NCCCNCC(=O)O; Glutaryl = O=C(CCCC(=O)[*:2])[*:1]; X2 = O=C(Oc1c(F)c(F)c(F)c(F)c1F)*; X1 = O=C1CCC(=O)N1OC(=O)*; X3 = C#Cc1cccc(N*)c1; Ahx = NCCCCCC(=O)O

Tests used:
[1] = test system: primary human airway epithelial (HAE) cell cultures; conditions: 10 μM, Boc-QAR-AMC 50 μM, 37° C.
Procedure: (§1) Inhibition of endogenous protease activities in CF sputum sol, was conducted as for Example 8 but in the presence of Boc-Gln-Ala-Arg-AMC (50 μM) as substrate. The rate of hydrolysis of the substrate at 37° C. was monitored and residual activity determined.

Trypsin = conditions: for k3 / k3/Ki / Ki: Trypsin; for k3: first-order rate constant, mean; for k3/Ki: overall second-order rate constant; for k3/Ki / Ki: Mean (±SD); for Ki: PBS pH 7.4, 37° C., Cbz-Gly-Gly-Arg-NHMec 50 μM; for over all second-order rate constant: trypsin
Procedure: (§2) The ability of compounds of the invention to inhibit the activities of a range of commercially sourced proteases was assessed using steady state fluorogenic substrate assays. […] Assays were carried out in PBS, pH 7.4, at 37° C., in the presence of varying concentrations of inhibitor (10-50 μM) and a fixed concentration of substrate (50 μM). […] In this mechanism, the inhibitor I, binds the target protease to form an initial reversible complex EI, characterised by the inhibitor constant Ki. This is followed by the formation of an irreversible complex E-I from EI, characterised by the first-order rate constant k3.

[2] = biological target: Human Airways Trypsin-like protease (HAT) (Homo sapiens, UniProt O60235); conditions: for k3/Ki: Mean (±SD); for k3: mean
Sequence of Human Airways Trypsin-like protease (HAT) (O60235 whole entry): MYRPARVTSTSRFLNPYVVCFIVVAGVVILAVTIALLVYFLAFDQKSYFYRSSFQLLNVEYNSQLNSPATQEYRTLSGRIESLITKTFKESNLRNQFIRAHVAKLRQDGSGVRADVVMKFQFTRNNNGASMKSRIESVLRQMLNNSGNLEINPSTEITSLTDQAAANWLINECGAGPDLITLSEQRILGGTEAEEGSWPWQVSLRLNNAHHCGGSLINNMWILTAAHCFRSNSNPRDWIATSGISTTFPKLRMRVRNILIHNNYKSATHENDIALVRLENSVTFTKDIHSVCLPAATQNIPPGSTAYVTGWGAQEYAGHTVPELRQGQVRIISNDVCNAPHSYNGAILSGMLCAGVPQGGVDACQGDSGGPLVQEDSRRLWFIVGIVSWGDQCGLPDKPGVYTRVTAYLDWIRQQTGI
Procedure: as §2

Matriptase = Matriptase (Homo sapiens, UniProt Q9Y5Y6); conditions: for k3/Ki: Mean (±SD); for k3: mean
Sequence of Matriptase (Q9Y5Y6 whole entry, species assumed): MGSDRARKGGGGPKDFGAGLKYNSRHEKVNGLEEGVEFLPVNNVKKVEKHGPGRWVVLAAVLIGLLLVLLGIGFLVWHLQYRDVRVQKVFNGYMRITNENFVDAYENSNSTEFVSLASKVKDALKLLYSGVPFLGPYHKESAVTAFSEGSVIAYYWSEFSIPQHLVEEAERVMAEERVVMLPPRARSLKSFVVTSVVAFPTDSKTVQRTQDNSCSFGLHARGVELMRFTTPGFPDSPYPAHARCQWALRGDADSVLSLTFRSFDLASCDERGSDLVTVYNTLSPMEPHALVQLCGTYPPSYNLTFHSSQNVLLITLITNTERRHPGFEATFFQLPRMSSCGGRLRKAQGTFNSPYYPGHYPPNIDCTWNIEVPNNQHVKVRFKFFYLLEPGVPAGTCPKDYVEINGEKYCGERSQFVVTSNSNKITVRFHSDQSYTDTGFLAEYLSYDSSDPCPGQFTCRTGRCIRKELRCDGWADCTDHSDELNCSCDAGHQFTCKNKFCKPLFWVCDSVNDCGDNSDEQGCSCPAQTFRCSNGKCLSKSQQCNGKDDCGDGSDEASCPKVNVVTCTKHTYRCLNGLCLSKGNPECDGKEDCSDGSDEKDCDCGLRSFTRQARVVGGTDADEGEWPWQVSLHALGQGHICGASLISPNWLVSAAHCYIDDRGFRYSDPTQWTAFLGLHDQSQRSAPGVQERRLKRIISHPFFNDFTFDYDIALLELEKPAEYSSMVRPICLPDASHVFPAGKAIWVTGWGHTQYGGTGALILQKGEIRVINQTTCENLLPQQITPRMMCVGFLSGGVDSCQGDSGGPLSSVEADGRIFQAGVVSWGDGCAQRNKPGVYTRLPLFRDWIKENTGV
Procedure: as §2

[3] = test system: endogenous protease activities in CF sputum sol; conditions: CF sputum sol from 8 individual CF patients; Boc-Gln-Ala-Arg-AMC 50 μM
Procedure: as §1

ENaC = type: cell-based
Procedure: All determinations were conducted using a TECC24 semiautomated system. Unlike the traditional Ussing chamber assays, where the short circuit current (ISC) is measured as an index of CFTR correction, the TECC-24 assay measures the equivalent current (IEQ).

Thrombin = Thrombin (Homo sapiens, UniProt P00734)
Procedure: as §2

[4] = test system: trypsin-like serine proteases in CF Sol; conditions: 10 μM; pooled CF sputum sol diluted ×4; substrate Cbz-Gly-Gly-Arg-AMC; 37° C.
Procedure: Briefly, the spectrofluorimetic analysis was conducted on a sample of pooled supernatant recovered by centrifugation from expectorated cystic fibrosis sputum, which had been diluted ×4 with phosphate-buffered saline (sputum sol). […] The rate of hydrolysis of the substrate at 37° C. was monitored and inhibition as a % of an untreated control calculated.

[5] = test system: primary CF Airway Epithelial Cells (AECs); conditions: 50 μM, 24 hours, n=3, vehicle control 3.5
Procedure: Mucociliary clearance was quantified by measuring the velocity of microbeads apically applied to differentiated primary CF Airway Epithelial Cells (AECs). Compounds (50 μM) were added to the apical surface of primary CF AECs for a period of 24 hours. Mucociliary flow was then determined by tracking and measuring the velocity of apically applied microbeads across the CF AEC surface.

Chymotrypsin = assay: Steady state fluorogenic substrate assay, inactivation of chymotrypsin; conditions: for k3: mean; for second-order rate constant: chymotrypsin
Procedure: as §2

Plasmin = Plasmin (Homo sapiens, UniProt P00747); assay: Steady state fluorogenic substrate assay, inactivation of plasmin
Sequence of Plasmin (P00747 97-810, species assumed): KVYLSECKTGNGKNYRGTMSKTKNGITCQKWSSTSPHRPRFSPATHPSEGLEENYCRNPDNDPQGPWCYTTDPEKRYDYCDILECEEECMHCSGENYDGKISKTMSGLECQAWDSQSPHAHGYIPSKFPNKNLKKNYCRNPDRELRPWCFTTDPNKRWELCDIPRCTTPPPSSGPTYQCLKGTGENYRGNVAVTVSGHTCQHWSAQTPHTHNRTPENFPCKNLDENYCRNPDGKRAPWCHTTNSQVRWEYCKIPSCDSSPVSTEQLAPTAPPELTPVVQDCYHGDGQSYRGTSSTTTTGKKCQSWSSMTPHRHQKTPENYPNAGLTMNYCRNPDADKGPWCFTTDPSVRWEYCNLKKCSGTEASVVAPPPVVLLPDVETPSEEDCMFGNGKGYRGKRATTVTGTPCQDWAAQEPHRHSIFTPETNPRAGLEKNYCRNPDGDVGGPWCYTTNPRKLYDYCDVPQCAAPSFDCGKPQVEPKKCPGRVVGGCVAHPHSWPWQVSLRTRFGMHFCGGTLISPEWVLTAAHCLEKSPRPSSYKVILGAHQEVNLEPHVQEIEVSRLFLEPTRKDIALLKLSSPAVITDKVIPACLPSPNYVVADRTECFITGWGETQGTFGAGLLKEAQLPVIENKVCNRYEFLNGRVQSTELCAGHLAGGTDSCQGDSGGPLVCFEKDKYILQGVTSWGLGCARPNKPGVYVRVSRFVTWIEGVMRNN
Procedure: as §2

Question: “Biotin-PEG-NH—N-(n-guanidino-propyl)-glycine-Gln-Sar-N-(n-guanidino-propyl)-glycine succinimidyl carbamate [NAP1099]” was tested. Which extracellular tryptic activity [1] did it give?
Answer: reduced extracellular tryptic activity to a similar degree as that of QUB-TL1

Question: What about the k3 (Trypsin) of the same compound?
Answer: 0.354 min⁻¹

Question: What about the k3/Ki (Trypsin) of the same compound?
Answer: 3.80 (±3.16) × 10^6 M^−1 min^−1

Question: What about the k3/Ki [2] of the same compound?
Answer: 3.71 (±2.89) × 10^6 M^−1 min^−1

Question: What about the k3 [2] of the same compound?
Answer: 0.474 min⁻¹

Question: What about the k3/Ki (Matriptase) of the same compound?
Answer: 8.52 (±9.05) × 10^6 M^−1 min^−1

Question: What about the k3 (Matriptase) of the same compound?
Answer: 0.302 min⁻¹

Question: And the “inhibition of endogenous protease activity, residual activity compared with QUB-TL1” value [3]?
Answer: superior to QUB-TL1

Question: How did the “inhibition of the observable current” value (ENaC; 10 μM, added to terminate the experiment, ENaC-expressing FRT cells) turn out when N=C(N)NC(=O)c1nc(Cl)c(N)nc1N [amiloride, reference compound] was run?
Answer: > 95%

Question: How did the k3/Ki (Thrombin; Mean (±SD)) turn out when “Biotin-PEG-NH—(N-benzyl-glycyl)-(D)-phenylalanyl-N-(n-guanidino-propyl)-glycine succinimidyl carbamate [NAT988]” was run?
Answer: 4.7 (± 1.1) × 10^5 M^−1 min^−1

Question: What about the k3 (Thrombin; mean) of the same compound?
Answer: 0.4 min⁻¹

Question: For “Biotin-PEG-NH-Gly-Gly-N-(n-guanidino-propyl)-glycine succinimidyl carbamate [NAP858]”, which “inhibition of hydrolytic action of trypsin-like serine proteases in CF Sol” value [4] is on record?
Answer: complete inhibition

Question: And the extracellular tryptic activity [1]?
Answer: reduced extracellular tryptic activity to a similar degree as that of QUB-TL1

Question: What about the “mucociliary clearance (velocity of apically applied microbeads)” value [5] of the same compound?
Answer: 6.83 μm/s

Question: And the Ki (Trypsin)?
Answer: 486 nM

Question: And the k3 (Trypsin)?
Answer: 0.299 min⁻¹

Question: What about the k3/Ki (Trypsin) of the same compound?
Answer: 1.95 (±2.62) × 10^6 M^−1 min^−1

Question: And the “over all second-order rate constant” value (Trypsin)?
Answer: 2.60 (±0.884)×10^6 M^−1·min^−1

Question: What about the k3/Ki [2] of the same compound?
Answer: 1.50 (±1.76) × 10^6 M^−1 min^−1

Question: What about the k3 [2] of the same compound?
Answer: 0.464 min⁻¹

Question: And the “ENaC activity (reduction of current)” value (ENaC; 50 μM, primary CF cultures, over a 90 minute period)?
Answer: 36 μA/cm2

Question: What about the k3/Ki (Matriptase) of the same compound?
Answer: 1.30 (±0.943) × 10^6 M^−1 min^−1

Question: What about the k3 (Matriptase) of the same compound?
Answer: 0.314 min⁻¹

Question: And the “inhibition of endogenous protease activity, residual activity compared with QUB-TL1” value [3]?
Answer: superior to QUB-TL1

Question: How did the Ki (Trypsin) turn out when C#Cc1cccc(NC(=O)CCCC(=O)NCCCC[C@H](NC(=O)CCCCCNC(=O)CNC(=O)CNC(=O)CN(CCCNC(=N)N)C(=O)ON2C(=O)CCC2=O)C(=O)O)c1 [NAP884, N-6-(1-acetylene-3-amino-phenyl)-di-carboxy-pentane-Lys-NH-Ahx-Gly-Gly-N-(n-guanidino-propyl)-glycine succinimidyl carbamate] (X1-[Gly(N-(CH2)3-guanidino)]GG[Ahx]K([Glutaryl-X3])-OH) was run?
Answer: 420 nM

Question: What about the k3 (Trypsin) of the same compound?
Answer: 0.528 min⁻¹

Question: What about the k3/Ki (Trypsin) of the same compound?
Answer: 1.34 (±0.351) × 10^6 M^−1 min^−1

Question: N=C(N)NCCCN(CC(=O)NCC(=O)NCC(=O)NCCCCCC(=O)N[C@@H](CCCCNC(=O)CCCC[C@@H]1SC[C@@H]2NC(=O)N[C@@H]21)C(=O)O)C(=O)Oc1c(F)c(F)c(F)c(F)c1F [NAP966, HO-Lys(biotin)-Ahx-Gly-Gly-N-(n-guanidino-propyl)-glycine pentafluorophenyl carbamate] (X2-[Gly(N-(CH2)3-guanidino)]GG[Ahx]K(Biotin)-OH) was tested. Which Ki (Trypsin) did it give?
Answer: 2100 nM

Question: What about the k3 (Trypsin) of the same compound?
Answer: 0.4 min⁻¹

Question: What about the k3/Ki (Trypsin) of the same compound?
Answer: 1.9 (±0.25) × 10^5 M^−1 min^−1

Question: Which results are given for “Biotin-PEG-NH—(N-methyl glycyl)-(N-methyl glycyl)-N-(benzyl)-glycine succinimidyl carbamate [CG877]”?
Answer: k3 (Chymotrypsin; Chymotrypsin): 0.7 min⁻¹; second-order rate constant (Chymotrypsin): 2.46 (±0.214)×10^5 M^−1·min^−1

Question: For “Biotin-PEG-NH-Gly-Gly-N-(benzyl)-glycine succinimidyl carbamate [NFP849]”, which k3/Ki (Chymotrypsin; Chymotrypsin, Mean (±SD)) is on record?
Answer: 1.3 (±0.4) × 10^6 M^−1 min^−1

Question: And the Ki (Chymotrypsin; Chymotrypsin, Suc-Ala-Ala-Pro-Phe-NHMec 50 μM, Mean (±SD))?
Answer: 890 nM

Question: And the k3 (Chymotrypsin; Chymotrypsin)?
Answer: 0.8 min⁻¹

Question: What about the second-order rate constant (Chymotrypsin) of the same compound?
Answer: 1.28 (±0.442)×10^6 M^−1·min^−1

Question: With “Biotin-PEG-NH-Gly-Gly-N-(n-amino-butyl)-glycine succinimidyl carbamate [NKP830]” as the compound, how does the Ki (Trypsin) read?
Answer: 220 nM

Question: And the k3 (Trypsin)?
Answer: 0.5 min⁻¹

Question: And the k3/Ki (Trypsin)?
Answer: 2.7 (±0.5) × 10^6 M^−1 min^−1

Question: And the “over all second-order rate constant” value (Trypsin)?
Answer: 2.74 (±0.547)×10^6 M^−1·min^−1

Question: What about the Ki (Plasmin; Boc-Val-Leu-Lys-NHMec 50 μM, Mean (±SD)) of the same compound?
Answer: 7.2 µM

Question: What about the k3/Ki (Plasmin; Mean (±SD)) of the same compound?
Answer: 6.2 (±0.9) × 10^4 M^−1 min^−1

Question: And the k3 (Plasmin; mean)?
Answer: 0.4 min⁻¹

Question: How did the Ki (Trypsin) turn out when N=C(N)NCCCN(CC(=O)NCC(=O)NCC(=O)NCCCCCC(=O)N[C@@H](CCCCNC(=O)CCCC[C@@H]1SC[C@@H]2NC(=O)N[C@@H]21)C(=O)O)C(=O)ON1C(=O)CCC1=O [NAP897, HO-Lys(Biotin)-Ahx-Gly-Gly-N-(n-guanidino-propyl)-glycine succinimidyl carbamate] (X1-[Gly(N-(CH2)3-guanidino)]GG[Ahx]K(Biotin)-OH) was run?
Answer: 660 nM

Question: What about the k3 (Trypsin) of the same compound?
Answer: 0.7 min⁻¹

Question: And the k3/Ki (Trypsin)?
Answer: 1.3 (±0.4) × 10^6 M^−1 min^−1
